pIC50: −log10 of the molar value. Like-named read-outs stand apart in the source and are kept apart here. Where a SMILES comes first, the peptide text is derived from it. Bridges are numbered along the chain shown (N, C = ends). [ ]: non-standard residue; d: D form. ξ: configuration not given here. Trp(1-CH2COOH) = N[C@@H](Cc1cn(CC(=O)O)c2ccccc12)C(=O)O; Phe(3,4,5-F3) = N[C@@H](Cc1cc(F)c(F)c(F)c1)C(=O)O; Phe(3,4-F2) = N[C@@H](Cc1ccc(F)c(F)c1)C(=O)O; NMePhe(4-Me) = CN[C@@H](Cc1ccc(C)cc1)C(=O)O; NMePhe(4-F) = CN[C@@H](Cc1ccc(F)cc1)C(=O)O; d(cisHyp) = O=C(O)[C@H]1C[C@@H](O)CN1; Bta = N[C@@H](Cc1csc2ccccc12)C(=O)O; NMeY = CN[C@@H](Cc1ccc(O)cc1)C(=O)O; Hyp = O=C(O)[C@@H]1C[C@@H](O)CN1; NMeF = CN[C@@H](Cc1ccccc1)C(=O)O; dHyp = O=C(O)[C@H]1C[C@H](O)CN1; NMehSer = CN[C@@H](CCO)C(=O)O; NMeNle = CCCC[C@H](NC)C(=O)O; Pip = O=C(O)[C@@H]1CCCCN1; dPip = O=C(O)[C@H]1CCCCN1; hSer = N[C@@H](CCO)C(=O)O; NMeA = CN[C@@H](C)C(=O)O; Orn = NCCC[C@H](N)C(=O)O; Dap = NC[C@H](N)C(=O)O; ξC = NC(CS)C(=O)O; Sar = CNCC(=O)O

For this assay, the target named is T1, Human PD-L1/PD-1 (Homo sapiens, UniProt Q9NZQ7).
T1 construct: TVMV protease cleavage site (C); made in house; host or cells: HEK293T cells
The assay can be described thus: HTRF Human PD-L1/PD-1 binding assay (PD-1-Ig/PD-L1-His). Conditions: PD-L1-His 10 nM, PD-1-Ig 20 nM. The procedure, abridged:
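HTRF competition using HEK293T-expressed human PD-1(25-167)-Ig at 20 nM and PD-L1(18-239)-His at 10 nM, compound incubated first with PD-L1 for 15 min, then with PD-1 for 15 min. Signal read as 665/620 nm ratio 30 min after adding Eu anti-Ig and APC anti-His antibodies.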
On the technique in general: In TR-FRET formats the signal depends on donor and acceptor labels being close together.

[1] abbreviates: class symbol, read-out: HTRF Human PD-L1/PD-1 Binding Assay IC50 Range.

T1 sequence (Q9NZQ7 with tags, fused parts or gaps): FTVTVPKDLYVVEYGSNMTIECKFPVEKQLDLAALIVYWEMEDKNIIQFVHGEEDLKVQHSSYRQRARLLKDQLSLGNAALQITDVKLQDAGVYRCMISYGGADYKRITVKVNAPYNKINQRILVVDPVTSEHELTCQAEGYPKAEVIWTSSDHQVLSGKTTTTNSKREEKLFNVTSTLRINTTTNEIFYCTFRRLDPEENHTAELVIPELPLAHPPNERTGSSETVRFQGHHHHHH

In the case of `CCCC[C@H]1C(=O)N(C)[C@@H](CCCC)C(=O)N[C@@H](CCCNC(=N)N)C(=O)N[C@H](C(=O)NCC(N)=O)CSCC(=O)N[C@@H](Cc2ccc(O)cc2)C(=O)N(C)[C@@H](C)C(=O)N[C@@H](CC(N)=O)C(=O)N2CCC[C@H]2C(=O)N[C@@H](Cc2cnc[nH]2)C(=O)N[C@@H](CO)C(=O)N2C[C@H](O)C[C@H]2C(=O)N[C@@H](Cc2c[nH]c3ccccc23)C(=O)N[C@@H](CO)C(=O)N[C@@H](Cc2cn(CC(=O)O)c3ccccc23)C(=O)N1C` [Example 6202] ({CH2CO}-Y[NMeA]NPHS[Hyp]WS[Trp(1-CH2COOH)][NMeNle][NMeNle]RCG-NH2; thioether N-14), the pIC50 under setting [1] is 7.00 to 8.00.
Consider `CCCC[C@H]1C(=O)N2C[C@@H](O)C[C@@H]2C(=O)N[C@@H](CC(=O)O)C(=O)N[C@@H](C(C)C)C(=O)N(C)[C@@H](Cc2ccc(C)cc2)C(=O)N[C@@H](CCC(=O)O)C(=O)N2CCC[C@@H]2C(=O)N[C@@H](Cc2c[nH]c3ccccc23)C(=O)N[C@@H](Cc2ccc(O)cc2)C(=O)N[C@@H](CC(C)C)C(=O)N[C@H](C(=O)NCC(N)=O)CSCC(=O)N[C@@H](Cc2cc(F)c(F)c(F)c2)C(=O)N(C)[C@@H](Cc2ccccc2)C(=O)N1C` [Example 10117] ({CH2CO}-[Phe(3,4,5-F3)][NMeF][NMeNle][dHyp]DV[NMePhe(4-Me)]E[dP]WYLCG-NH2; thioether N-13), for which the pIC50 under setting [1] is 6.00 to 7.00.
On to `CCCC[C@H]1C(=O)N(C)[C@@H](CCCC)C(=O)N[C@@H](CCC(=O)O)C(=O)N[C@H](C(=O)NCC(N)=O)CSCC(=O)N[C@@H](Cc2ccc(O)cc2)C(=O)N(C)[C@@H](C)C(=O)N[C@@H](CC(=O)O)C(=O)N2CCC[C@H]2C(=O)N[C@@H](CO)C(=O)N[C@@H](CCC(N)=O)C(=O)N2C[C@H](O)C[C@H]2C(=O)N[C@@H](Cc2c[nH]c3ccccc23)C(=O)N[C@@H](CO)C(=O)N[C@@H](Cc2c[nH]c3ccccc23)C(=O)N1C` [Example 5214] ({CH2CO}-Y[NMeA]DPSQ[Hyp]WSW[NMeNle][NMeNle]ECG-NH2; thioether N-14), for which the pIC50 under setting [1] is 8.00 to 9.00.
For `CCCC[C@H]1C(=O)N(C)CC(=O)N[C@@H](CC(=O)O)C(=O)N[C@@H](C(C)C)C(=O)N[C@@H](Cc2c[nH]c3ccccc23)C(=O)N[C@@H](Cc2c[nH]c3ccccc23)C(=O)N(C)CC(=O)N[C@@H](Cc2c[nH]c3ccccc23)C(=O)N[C@@H](Cc2ccc(O)cc2)C(=O)N[C@@H](CC(C)C)C(=O)N[C@H](C(=O)NCC(N)=O)CSCC(=O)N[C@@H](Cc2ccccc2)C(=O)N(C)[C@@H](Cc2ccccc2)C(=O)N1C` [Example 3234] ({CH2CO}-F[NMeF][NMeNle][Sar]DVWW[Sar]WYLCG-NH2; thioether N-13), the pIC50 (read-out: HTRF Human PD-L1/PD-1 Binding Assay IC50) was 5.00.
As to `CCCC[C@H]1C(=O)N2C[C@H](O)C[C@@H]2C(=O)N[C@@H](CC(=O)O)C(=O)N[C@@H](C(C)C)C(=O)N(C)[C@@H](Cc2ccccc2)C(=O)N[C@@H](CCC(=O)O)C(=O)N2C[C@H](O)C[C@@H]2C(=O)N[C@@H](Cc2c[nH]c3ccccc23)C(=O)N[C@@H](Cc2ccc(O)cc2)C(=O)N[C@@H](CN)C(=O)N[C@H](C(=O)NCC(N)=O)CSCC(=O)N[C@@H](Cc2cc(F)c(F)c(F)c2)C(=O)N(C)[C@@H](Cc2ccccc2)C(=O)N1C` [Example 9334] ({CH2CO}-[Phe(3,4,5-F3)][NMeF][NMeNle][d(cisHyp)]DV[NMeF]E[d(cisHyp)]WY[Dap]CG-NH2; thioether N-13), the pIC50 under setting [1] is 7.00 to 8.00.
For the compound `COCC[C@H]1C(=O)N2C[C@@H](O)C[C@@H]2C(=O)N[C@@H](CC(=O)O)C(=O)N[C@@H](C(C)C)C(=O)N(C)[C@@H](Cc2ccccc2)C(=O)N[C@@H](Cc2ccc(O)cc2)C(=O)N2C[C@@H](O)C[C@@H]2C(=O)N[C@@H](Cc2c[nH]c3ccccc23)C(=O)N[C@@H](Cc2ccc(O)cc2)C(=O)N[C@@H](CCCN)C(=O)N[C@H](C(=O)NCC(N)=O)CSCC(=O)N[C@@H](Cc2ccc(F)c(F)c2)C(=O)N(C)[C@@H](Cc2ccccc2)C(=O)N1C` [Example 9237] ({CH2CO}-[Phe(3,4-F2)][NMeF][NMehSer](Me)[dHyp]DV[NMeF]Y[dHyp]WY[Orn]CG-NH2; thioether N-13), the pIC50 under setting [1] was 8.00 to 9.00.
The same measure, in the same setting: as for `CCCC[C@H]1C(=O)N2CCC[C@@H]2C(=O)N[C@@H](CC(=O)O)C(=O)N[C@@H](C(C)C)C(=O)N(C)[C@@H](Cc2ccccc2)C(=O)N[C@@H](CC(=O)O)C(=O)N2CCCC[C@@H]2C(=O)N[C@@H](Cc2c[nH]c3ccccc23)C(=O)N[C@@H](Cc2ccc(O)cc2)C(=O)N[C@@H](CN)C(=O)N[C@H](C(=O)NCC(N)=O)CSCC(=O)N[C@@H](Cc2cc(F)c(F)c(F)c2)C(=O)N(C)[C@@H](Cc2ccc(F)cc2)C(=O)N1C` [Example 10572] ({CH2CO}-[Phe(3,4,5-F3)][NMePhe(4-F)][NMeNle][dP]DV[NMeF]D[dPip]WY[Dap]CG-NH2; thioether N-13), the figure is 8.00 to 9.00; as for `CCCC[C@H]1C(=O)N(C)[C@@H](CCCC)C(=O)N[C@@H](CCCNC(=N)N)C(=O)N[C@H](C(=O)NCC(N)=O)CSCC(=O)N[C@@H](Cc2ccc(O)cc2)C(=O)N(C)[C@@H](C)C(=O)N[C@@H](CC(N)=O)C(=O)N2CCC[C@H]2C(=O)N[C@@H](CO)C(=O)N[C@@H](CCO)C(=O)N2C[C@H](O)C[C@H]2C(=O)N[C@@H](Cc2c[nH]c3ccccc23)C(=O)N[C@@H](CCO)C(=O)N[C@@H](Cc2cn(CC(=O)O)c3ccccc23)C(=O)N1C` [Example 6213] ({CH2CO}-Y[NMeA]NPS[hSer][Hyp]W[hSer][Trp(1-CH2COOH)][NMeNle][NMeNle]RCG-NH2; thioether N-14), 8.00 to 9.00; as for `CCCC[C@H]1C(=O)N(C)CC(=O)N[C@@H](CC(=O)O)C(=O)NC(C(C)c2ccccc2)C(=O)N(C)[C@@H](Cc2ccccc2)C(=O)N[C@@H](Cc2ccc(O)cc2)C(=O)N(C)CC(=O)N[C@@H](Cc2c[nH]c3ccccc23)C(=O)N[C@@H](Cc2ccc(O)cc2)C(=O)N[C@@H](CC(C)C)C(=O)N[C@H](C(=O)NCC(N)=O)CSCC(=O)N[C@@H](Cc2ccccc2)C(=O)N(C)[C@@H](Cc2ccccc2)C(=O)N1C` (single isomer, unassigned) [Example 3230-A], 5.00 to 6.00.
On the same count and under the same terms, as for `CCCC[C@H]1C(=O)N2CCC[C@@H]2C(=O)N[C@@H](CC(=O)O)C(=O)N[C@@H](C)C(=O)N(C)[C@@H](Cc2ccccc2)C(=O)N[C@@H](Cc2ccc(O)cc2)C(=O)N(C)CC(=O)N[C@@H](Cc2c[nH]c3ccccc23)C(=O)N[C@@H](Cc2ccc(O)cc2)C(=O)N[C@@H](CC(C)C)C(=O)N[C@H](C(=O)NCC(N)=O)CSCC(=O)N[C@@H](Cc2ccccc2)C(=O)N(C)[C@@H](Cc2ccccc2)C(=O)N1C` [Example 10044] ({CH2CO}-F[NMeF][NMeNle][dP]DA[NMeF]Y[Sar]WYLCG-NH2; thioether N-13), the figure is 7.00 to 8.00.
As to `CCCC[C@H]1C(=O)N(C)[C@@H](CCCC)C(=O)N[C@@H](CCC(=O)O)C(=O)N[C@H](C(=O)NCC(N)=O)CSCC(=O)N[C@@H](Cc2ccc(O)cc2)C(=O)N(C)[C@@H](C)C(=O)N[C@@H](CC(=O)O)C(=O)N2CCC[C@H]2C(=O)N[C@@H](CN)C(=O)N[C@@H](CC(C)C)C(=O)N2C[C@H](O)C[C@H]2C(=O)N[C@@H](Cc2c[nH]c3ccccc23)C(=O)N[C@@H](CCC(=O)O)C(=O)N[C@@H](Cc2c[nH]c3ccccc23)C(=O)N1C` [Example 5257] ({CH2CO}-Y[NMeA]DP[Dap]L[Hyp]WEW[NMeNle][NMeNle]ECG-NH2; thioether N-14), the pIC50 under setting [1] is 7.00 to 8.00.
Take `CCCC[C@H]1C(=O)N(C)[C@@H](CCCC)C(=O)N[C@@H](CCCNC(=N)N)C(=O)NC(C(=O)NCC(N)=O)CSCC(=O)N[C@@H](Cc2ccc(O)cc2)C(=O)N(C)[C@@H](C)C(=O)N[C@@H](CC(N)=O)C(=O)N2CCC[C@H]2C(=O)N[C@@H](CC(N)=O)C(=O)N[C@@H](CC(N)=O)C(=O)N2C[C@H](O)C[C@H]2C(=O)N[C@@H](Cc2c[nH]c3ccccc23)C(=O)N[C@@H](CO)C(=O)N[C@@H](Cc2csc3ccccc23)C(=O)N1C` (stereo partly drawn) [Example 10012] ({CH2CO}-Y[NMeA]NPNN[Hyp]WS[Bta][NMeNle][NMeNle]R[ξC]G-NH2; thioether N-14): the pIC50 under setting [1] was 7.00 to 8.00.
Turning to `CCCC[C@H]1C(=O)N(C)[C@@H](CCCC)C(=O)N[C@@H](CCC(=O)O)C(=O)N[C@H](C(=O)NCC(N)=O)CSCC(=O)N[C@@H](Cc2ccc(OC)cc2)C(=O)N(C)[C@@H](C)C(=O)N[C@@H](CC(N)=O)C(=O)N2CCC[C@H]2C(=O)N[C@@H](Cc2cnc[nH]2)C(=O)N[C@@H](CCC(=O)O)C(=O)N2C[C@H](O)C[C@H]2C(=O)N[C@@H](Cc2c[nH]c3ccccc23)C(=O)N[C@@H](CC(=O)O)C(=O)N[C@@H](Cc2c[nH]c3ccccc23)C(=O)N1C` [Example 7124] ({CH2CO}-Y(Me)[NMeA]NPHE[Hyp]WDW[NMeNle][NMeNle]ECG-NH2; thioether N-14), under setting [1], the pIC50 is 7.00 to 8.00.
Same read-out and setting: for `CCCC[C@H]1C(=O)N(C)[C@@H](CCCC)C(=O)N[C@@H](CC(C)C)C(=O)N[C@H](C(=O)NCC(N)=O)CSCC(=O)N[C@@H](Cc2ccc(O)cc2)C(=O)N2CCCC[C@H]2C(=O)N[C@@H](CC(=O)O)C(=O)N2CCC[C@H]2C(=O)N[C@@H](CN)C(=O)N[C@@H](CCC(=O)O)C(=O)N2C[C@H](O)C[C@H]2C(=O)N[C@@H](Cc2c[nH]c3ccccc23)C(=O)N[C@@H](CO)C(=O)N[C@@H](Cc2c[nH]c3ccccc23)C(=O)N1C` [Example 1272] ({CH2CO}-Y[Pip]DP[Dap]E[Hyp]WSW[NMeNle][NMeNle]LCG-NH2; thioether N-14) the value was 8.00 to 9.00; for `CCCC[C@H]1C(=O)N2CCC[C@@H]2C(=O)N[C@@H](CC(=O)O)C(=O)N[C@@H](C(C)C)C(=O)N(C)[C@@H](Cc2ccccc2)C(=O)N[C@@H](CCC(=O)O)C(=O)N2CCCC[C@@H]2C(=O)N[C@@H](Cc2c[nH]c3ccccc23)C(=O)N[C@@H](Cc2ccc(O)cc2)C(=O)N[C@@H](CCCN)C(=O)N[C@H](C(=O)NCC(N)=O)CSCC(=O)N[C@@H](Cc2cc(F)c(F)c(F)c2)C(=O)N(C)[C@@H](Cc2ccc(O)cc2)C(=O)N1C` [Example 10601] ({CH2CO}-[Phe(3,4,5-F3)][NMeY][NMeNle][dP]DV[NMeF]E[dPip]WY[Orn]CG-NH2; thioether N-13), 8.00 to 9.00.

The values are drawn from patent US10538555B2, “Macrocyclic inhibitors of the PD-1/PD-L1 and CD80(B7-1)/PD-L1 protein/protein interactions” (BRISTOL-MYERS SQUIBB COMPANY, priority 2014, dated 2020).
